We go through seven molecules from patent US6878747B2, “Systemic formulations containing beta-carotene and derivatives thereof” (priority 2001, dated 2005).

For series [1], the system named is human melanoma cell cultures. In words: Guanosine then beta-carotene treatment of melanoma cell cultures, Example 10. The class given is cell-based. As to conditions: 7 days. Here is the method: Guanosine was added to McCoy's 5A modified medium at a concentration of 3 mg/ml. This supplemented medium was added to Leighton tubes after removal of an non-supplemented medium and was replaced every 2 days for 7 days. Beta-carotene in THF was added to McCoy's 5A modified medium at a concentration of 33 mg/ml with a final concentration of 0.5% THF. This supplemented medium was added to the Leighton tubes after removal of guanosine supplemented medium and was replaced every 2 days for an additional 7 day experimental period. At the end of 14 days, the cultures were fixed in methanol and the cover slips were Giemsa stained.

The nature of series [2]: Soluabilization in THF, Example 11. As to conditions: hand shaking, results approximate. In kind it is physicochemical. Here is the method:
All experimental substances (retinol, retinoic acid, 9-cis retinoic acid, retinal) were from Sigma (St. Louis, Mo.). All experimental substances were provided in sealed ampules.
The solvent, Tetrahydrofuran (stabilized with BHT) was also from Sigma.^1
^1 In the soluabilization experiments described in Examples 11 and 12 a small amount of yellow material appeared on the bottom of the stopper. In addition, since THF is somewhat volatile, the results are approximate.
2 ml shell vials from Electron Microscopy Sciences (Fort Washington, Pa.) Hamilton glass syringes (100 microliter, 250 microliter, 500 microliter) were from Fisher Scientific (Pittsburgh, Pa.). Silicone stoppers and other glassware were also from Fisher Scientific.
All of a retinoic acid ampule (100 mg ) was poured into a 2 ml shell vial and stoppered with a silicon stopper. Using a 500 microliter Hamilton syringe, 500 microliters of THF was added to the vial and then shaken by hand.
a. 25 mg ampule of retinol was poured into a 2 ml shell vial and it soluabilized completely in 250 microliters of THF.
b. 100 mg ampule of retinol was poured into a vial and it soluabilized completely in 0.5 ml of THF.
c. 100 mg ampule of retinol was poured into a vial and it soluabilized completely in 0.1 ml THF.
20 microliters THF from a Hamilton syringe was added to an ampule containing 1 mg of 9-cis retinoic acid. It appeared that complete soluability was achieved.
A 100 mg ampule of retinal was emptied into a 2 ml shell vial, and was completely soluabilized with hand shaking in 100 microliters of THF.

Series [3] in a line: Soluabilization in THF, Example 12. In kind it is physicochemical. The following applies: results approximate. Here is the method: All materials and sources were the same as in Example 11.The only additions were the use of 4.3 ml glass shell vials from Electron Microscopy Sciences, 10 ml glass centrifuge tubes from Fisher, and a 1.25 ml glass Hamilton syringe from Fisher.
All of a retinoic acid (1 gram) ampule was poured into a 10 ml glass centrifuge tube and stoppered with a silicon stopper. 7 ml of THF was added to the tube and then shaken by hand. This was performed twice.
All of a 1 gram ampule was poured into a 4.3 ml shell vial and stoppered with a silicon stopper. Using a 1.25 ml Hamilton syringe, 1.0 ml of THF was added to the vial and then shaken by hand. It soluabilized completely.
10 microliters THF from a Hamilton syringe was added to a ampule containing 1 mg of 9-cis retinoic acid. It appeared that complete soluability was achieved.
A 500 mg ampule of retinal was emptied into a 2 ml shell vial, and was completely soluabilized with hand shaking in 0.5 ml of THF.

Series [4] is described as follows: Maximum concentration of beta-carotene dissolving in THF. The class given is physicochemical. The procedure:
The formulation broadly comprises from about 0.1 to about 9.3 mg and preferably from about 1 to about 6 mg of beta-carotene per ml of tetrahydrofuran. The maximum concentration of beta-carotene capable of dissolving in THF is 9.3 mg/ml. Solubility problems arise above this concentration of beta-carotene. Beta-carotene and derivatives thereof for use in the present invention is commercially available from Sigma Chemical Co. or Fisher Scientific Co.

For series [5], the system named is human hepatocytes. Nature of the series: Absorption of beta-carotene in THF in human hepatocytes. The following applies: 10 μM beta-carotene, 0.05% THF, 24 hours incubation; three samples. In kind it is in vitro ADME. Here is the method: The following experiment was performed three times to determine the absorption of beta-carotene in THF in human hepatocytes.
Beta-carotene was dissolved in a solution containing 99.9% (w/w) tetrahydrofuran (THF) with 0.025% (w/w) butylated hydroxytoluene (BHT) to obtain a 2000× (20 mM) stock solution. While the incubation media was rapidly stirred, the stock solution was added to create a final 1× dosing solution containing 10 μM beta-carotene and 0.05% THF.
Hepatocytes were isolated and cryopreserved according to the methods described in Li, A. P., et al., Isolation and culturing of hepatocytes from human liver, J. Tiss. Culture Methods, 14:139-146(1992); Li rat and human hepatocytes as multicellular spheroids, In Vitro Cell. Dev. Biol., 28A:673-677 (1992); and Loretz, L. J. et al., Promutagen activation by freshly isolated and cryopreserved rat hepatocytes, Environ. Mol. Mutag., 12(3):335-341. Portions of liver tissue were processed into hepatocytes by collagenase-based digestion of connective tissue, followed by manual and mechanical separation and washing with media. Isolated hepatocytes were counted to determine yield, and viability was measured using Trypan Blue™ exclusion. The viability of the cells was 90%. The cells were resuspended in the plating media described above at a density of 0.7×10^6 cells/mL. […]

Series [6] deals with human melanoma cell cultures. Nature of the series: Beta-carotene treatment of melanoma cell cultures, Example 9. The class given is cell-based. As to conditions: beta-carotene 33 mg/ml in medium, 0.5% THF, 7 days. The procedure: Experiment: Beta-carotene in tetrahydrofuran (THF) was added to McCoy's 5A modified medium at a concentration of 33 mg/ml with a final concentration of 0.5% THF. This supplemented medium was added to Leighton tubes (containing melanoma cells) after removal of un-supplemented medium and was replaced every 2 days during the 7 day experimental period. At the end of 7 days, the cultures were fixed in methanol and the cover slips were Giemsa stained.

Series [7] has as its system intra-abdominal sepsis in a rat model. The following applies: dietary supplementation; beta-carotene 90 mg/kg; cited from earlier work.
The test system of series [8] is right calf of a health professional. As to conditions: in vivo. From the text:
Retinol, retinal, and retinoic acid, were each soluabilized in THF as described above and used as follows. A fingertip amount of each (e.g. retinoic acid, retinol retinal?) was rubbed into the right calf of a health professional.

For series [9], the system named is human with male pattern baldness. In words: Topical use in human male pattern baldness. The class given is in vivo. The following applies: in THF, applied daily to thinning vertex; within 4 months. The text has this: A human with male pattern baldness applies retinol in THF daily to their thinning vertex.
[10] abbreviates: beta-carotene 33 mg/ml, 0.5% THF, after 7 days of guanosine 3 mg/ml.

`Nc1nc2c(ncn2[C@@H]2O[C@H](CO)[C@@H](O)[C@H]2O)c(=O)[nH]1` [guanosine, Guanosine]: the “phenotypic changes in the overall cell population” value in series [1] (guanosine 3 mg/ml in medium) is “many cells with an increased nuclear to cytoplasmic ratio”.

For `CC1=C(/C=C/C(C)=C\C=C\C(C)=C\C(=O)O)C(C)(C)CCC1` [9-cis retinoic acid], the “soluability in THF” value in series [2] is “at least 50 mg/ml THF”; in series [3], “about 100 mg/ml THF”.

Turning to `CC1=C(/C=C/C(C)=C/C=C/C(C)=C/C=C/C=C(C)/C=C/C=C(C)/C=C/C2=C(C)CCCC2(C)C)C(C)(C)CCC1` [beta-carotene], in series [4], the “maximum concentration of beta-carotene capable of dissolving in THF” value turned out to be 9.3 mg/mL. Moreover, the “detection of beta-carotene in the cells (dark regions, light microscope)” value in series [5] is on record as “presence of beta-carotene in the cells”. Besides, the “cell death in culture compared with control cultures” value in series [6] is given as “a large segment of the starting population died”. The “morphology of the remaining cells” value in series [6] (Giemsa stained) was “most had triangular morphology and a large nucleus, consistent with neural cells, or were fusiform in shape”. Also, in series [1] (setting [10]), the “cell death in culture” value is on record as “did not cause the extensive cell death” and the “morphology of the surviving cells” value is “most of those had a neuronal morphology”. In addition, the “protective effect on intra-abdominal sepsis” value in [7] was “lesser effect”.

With Vitamin A, in [7], the “protective effect on intra-abdominal sepsis” value is reported as “significant protective effect”.

In the case of `CC1=C(/C=C/C(C)=C/C=C/C(C)=C/C=O)C(C)(C)CCC1` [retinal], the “soluability in THF” value in series [2] and in series [3] was “about 1 gm/ml THF” each time. Moreover, in series [8], the “signs of toxicity, topically or systemically” value (“signs of toxicity” below) was “no signs of toxicity”.

Turning to `CC1=C(/C=C/C(C)=C/C=C/C(C)=C/CO)C(C)(C)CCC1` [retinol], the “soluability in THF” value in series [2] and in [3] was “about 1 gm/ml THF” each time. Further, the “signs of toxicity” value in series [8] is “no signs of toxicity”. For the same molecule, in series [9], the “new hair growth (hair counts, investigator and patient assessment)” value is given as “significant new hair growth”.

As to `CC1=C(/C=C/C(C)=C/C=C/C(C)=C/C(=O)O)C(C)(C)CCC1` [retinoic acid], in series [8], the “signs of toxicity” value is “no signs of toxicity”.
